Assay results as given in patent publication US12655124B2, “Heterocyclic compounds as modulators of stimulator of interferon genes (STING)” (RYVU THERAPEUTICS S.A., priority 2019, dated 2026).
Counter-ions that a name gives are not always drawn.

Each compound was assayed against human STING (Homo sapiens, UniProt Q86WV6) (assay: Fluorescence Thermal Shift assay (hSTING FTS binding assay)). Details: ΔTm, STING 0.1 mg/mL, SyproOrange, 25 to 99° C.
Method: Fluorescence Thermal Shift Assay Compounds of the present invention were tested for binding to human STING in Fluorescence Thermal Shift assay. […] Final STING concentration was 0.1 mg/mL. Thermal unfolding was performed in Real-Time PCR QuantStudio 6 Flex System (Applied Biosystems), from 25 to 99° C., with continuous ramp mode and ramp rate 0.033° C./s. The data were analyzed using Protein Thermal Shift Software (ThermoFisher).
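Also: STING preincubated with compound for 20 min in HEPES NaCl buffer pH 7.5.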

Sequence of human STING (Q86WV6 whole entry H232R): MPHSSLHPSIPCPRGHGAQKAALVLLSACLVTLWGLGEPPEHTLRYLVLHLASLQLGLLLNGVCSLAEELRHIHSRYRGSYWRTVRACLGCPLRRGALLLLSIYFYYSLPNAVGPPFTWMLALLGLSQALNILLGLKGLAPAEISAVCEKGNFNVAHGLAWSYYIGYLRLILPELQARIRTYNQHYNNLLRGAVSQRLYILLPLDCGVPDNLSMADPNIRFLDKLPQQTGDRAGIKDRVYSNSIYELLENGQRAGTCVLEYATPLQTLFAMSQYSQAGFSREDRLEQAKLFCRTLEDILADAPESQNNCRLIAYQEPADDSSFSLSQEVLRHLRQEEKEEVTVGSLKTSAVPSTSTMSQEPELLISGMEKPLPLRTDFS

SMILES	hSTING FTS binding assay (ΔT ° C.)
Cc1ccc(N2CCC[C@H](N(Cc3ccnc(C)c3)Cc3cn(C4CC4)c4cc(N5CC[C@@H](N)C(F)(F)C5)c(F)cc4c3=O)C2)cn1.Cl (single isomer, unassigned) [Example 56]	+++ (ΔTm≥20° C.)
Cc1cc(CN(Cc2cn(C)c3ccccc3c2=O)[C@H]2CCCN(c3cccc(N)c3)C2)ccn1.Cl [Example 1, 3-({[(3S)-1-(3-Aminophenyl)piperidin-3-yl][(2-methylpyridin-4-yl)methyl]amino}methyl)-1-methyl-1,4-dihydroquinolin-4-one Hydrochloride]	+ (ΔTm≤10° C.)
Cc1cc(CN(Cc2cn(C)c3ccccc3c2=O)[C@H]2CCCN(c3ccc(N)nc3)C2)ccn1 [Example 2, 3-({[(3S)-1-(6-Aminopyridin-3-yl)piperidin-3-yl][(2-methylpyridin-4-yl)methyl]amino}methyl)-1-methyl-1,4-dihydroquinolin-4-one]	+++ (ΔTm≥20° C.)
Cc1cc(CN(Cc2cn(C)c3ccccc3c2=O)[C@H]2CCCN(c3ccc(CN)nc3)C2)ccn1.Cl [Example 3, 3-({[(3S)-1-[6-(Aminomethyl)pyridin-3-yl]piperidin-3-yl][(2-methylpyridin-4-yl)methyl]amino}methyl)-1-methyl-1,4-dihydroquinolin-4-one Hydrochloride]	+ (ΔTm≤10° C.)
Cc1ccc(N2CCC[C@H](N(Cc3ccnc(N)c3)Cc3cn(C4CC4)c4cc(F)c(F)cc4c3=O)C2)cn1 [Example 5, 3-({[(2-Aminopyridin-4-yl)methyl][(3S)-1-(6-methylpyridin-3-yl)piperidin-3-yl]amino}methyl)-1-cyclopropyl-6,7-difluoro-1,4-dihydroquinolin-4-one Hydrochloride]	+++ (ΔTm≥20° C.)
Cc1ccc(N2CCC[C@H](N(Cc3ccnc(C)c3)Cc3cn(C)c4cc(N5CCC(N)CC5)ccc4c3=O)C2)cn1.Cl [Example 6, 7-(4-Aminopiperidin-1-yl)-1-methyl-3-({[(3S)-1-(6-methylpyridin-3-yl)piperidin-3-yl][(2-methylpyridin-4-yl)methyl]amino}methyl)-1,4-dihydroquinolin-4-one Hydrochloride]	++ (10<ΔTm<20° C.)
Cc1ccc(N2CCC[C@H](N(Cc3ccnc(C)c3)Cc3cn(C4CC4)c4cc(N)c(F)cc4c3=O)C2)cn1 [Example 7, 7-Amino-1-cyclopropyl-6-fluoro-3-({[(3S)-1-(6-methylpyridin-3-yl)piperidin-3-yl][(2-methylpyridin-4-yl)methyl]amino}methyl)-1,4-dihydroquinolin-4-one]	+++ (ΔTm≥20° C.)
Cc1ccc(N2CCC[C@H](N(Cc3ccnc(C)c3)Cc3cn(C4CC4)c4cc(NCCN)c(F)cc4c3=O)C2)cn1 [Example 8, 7-[(2-Aminoethyl)amino]-1-cyclopropyl-6-fluoro-3-({[(3S)-1-(6-methylpyridin-3-yl)piperidin-3-yl][(2-methylpyridin-4-yl)methyl]amino}methyl)-1,4-dihydroquinolin-4-one]	+++ (ΔTm≥20° C.)
Cc1ccc(N2CCC[C@H](N(Cc3ccnc(C)c3)Cc3cn(C4CC4)c4cc(NCCN(C)C)c(F)cc4c3=O)C2)cn1 [Example 9, 1-Cyclopropyl-7-{[2-(dimethylamino)ethyl]amino}-6-fluoro-3-({[(3S)-1-(6-methylpyridin-3-yl)piperidin-3-yl][(2-methylpyridin-4-yl)methyl]amino}methyl)-1,4-dihydroquinolin-4-one]	+++ (ΔTm≥20° C.)
Cc1ccc(N2CCC[C@H](N(Cc3ccnc(C)c3)Cc3cn(C4CC4)c4cc(OCCN)c(F)cc4c3=O)C2)cn1 [Example 10, 7-(2-Aminoethoxy)-1-cyclopropyl-6-fluoro-3-({[(3S)-1-(6-methylpyridin-3-yl)piperidin-3-yl][(2-methylpyridin-4-yl)methyl]amino}methyl)-1,4-dihydroquinolin-4-one]	+++ (ΔTm≥20° C.)
CNCCOc1cc2c(cc1F)c(=O)c(CN(Cc1ccnc(C)c1)[C@H]1CCCN(c3ccc(C)nc3)C1)cn2C1CC1.Cl [Example 11, 1-Cyclopropyl-6-fluoro-7-[2-(methylamino)ethoxy]-3-({[(3S)-1-(6-methylpyridin-3-yl)piperidin-3-yl][(2-methylpyridin-4-yl)methyl]amino}methyl)-1,4-dihydroquinolin-4-one Hydrochloride]	+++ (ΔTm≥20° C.)
Cc1ccc(N2CCC[C@H](N(Cc3ccnc(C)c3)Cc3cn(C4CC4)c4cc(N5CC[C@@H](N)C5)c(F)cc4c3=O)C2)cn1.Cl [Example 12, 7-[(3R)-3-Aminopyrrolidin-1-yl]-1-cyclopropyl-6-fluoro-3-({[(3S)-1-(6-methylpyridin-3-yl)piperidin-3-yl][(2-methylpyridin-4-yl)methyl]amino}methyl)-1,4-dihydroquinolin-4-one Hydrochloride]	+++ (ΔTm≥20° C.)
Cc1ccc(N2CCC[C@H](N(Cc3ccnc(C)c3)Cc3cn(C4CC4)c4cc(N5CC[C@H](N)C5)c(F)cc4c3=O)C2)cn1.Cl [Example 13, 7-[(3S)-3-Aminopyrrolidin-1-yl]-1-cyclopropyl-6-fluoro-3-({[(3S)-1-(6-methylpyridin-3-yl)piperidin-3-yl][(2-methylpyridin-4-yl)methyl]amino}methyl)-1,4-dihydroquinolin-4-one Hydrochloride]	+++ (ΔTm≥20° C.)
Cc1ccc(N2CCC[C@H](N(Cc3ccnc(C)c3)Cc3cn(C4CC4)c4cc(N5CC[C@@H](O)C5)c(F)cc4c3=O)C2)cn1.Cl [Example 14, 1-Cyclopropyl-6-fluoro-7-[(3R)-3-hydroxypyrrolidin-1-yl]-3-({[(3S)-1-(6-methylpyridin-3-yl)piperidin-3-yl][(2-methylpyridin-4-yl)methyl]amino}methyl)-1,4-dihydroquinolin-4-one Hydrochloride]	+++ (ΔTm≥20° C.)
Cc1ccc(N2CCC[C@H](N(Cc3ccnc(C)c3)Cc3cn(C4CC4)c4cc(N5CC[C@H](CN)C5)c(F)cc4c3=O)C2)cn1.Cl [Example 15, 7-[(3R)-3-(Aminomethyl)pyrrolidin-1-yl]-1-cyclopropyl-6-fluoro-3-({[(3S)-1-(6-methylpyridin-3-yl)piperidin-3-yl][(2-methylpyridin-4-yl)methyl]amino}methyl)-1,4-dihydroquinolin-4-one Hydrochloride]	+++ (ΔTm≥20° C.)
Cc1ccc(N2CCC[C@H](N(Cc3ccnc(C)c3)Cc3cn(C4CC4)c4cc(N5CCC[C@H](N)C5)c(F)cc4c3=O)C2)cn1 [Example 16, 7-[(3S)-3-Aminopiperidin-1-yl]-1-cyclopropyl-6-fluoro-3-({[(3S)-1-(6-methylpyridin-3-yl)piperidin-3-yl][(2-methylpyridin-4-yl)methyl]amino}methyl)-1,4-dihydroquinolin-4-one]	+++ (ΔTm≥20° C.)
Cc1ccc(N2CCC[C@H](N(Cc3ccnc(C)c3)Cc3cn(C4CC4)c4cc(N5CCC[C@@H](N)C5)c(F)cc4c3=O)C2)cn1 [Example 17, 7-[(3R)-3-Aminopiperidin-1-yl]-1-cyclopropyl-6-fluoro-3-({[(3S)-1-(6-methylpyridin-3-yl)piperidin-3-yl][(2-methylpyridin-4-yl)methyl]amino}methyl)-1,4-dihydroquinolin-4-one]	+++ (ΔTm≥20° C.)
CNC1CCN(c2cc3c(cc2F)c(=O)c(CN(Cc2ccnc(C)c2)[C@H]2CCCN(c4ccc(C)nc4)C2)cn3C2CC2)CC1.Cl [Example 19, 1-cyclopropyl-6-fluoro-7-[4-(methylamino)piperidin-1-yl]-3-({[(3S)-1-(6-methylpyridin-3-yl)piperidin-3-yl][(2-methylpyridin-4-yl)methyl]amino}methyl)-1,4-dihydroquinolin-4-one Hydrochloride]	+++ (ΔTm≥20° C.)
Cc1ccc(N2CCC[C@H](N(Cc3ccnc(C)c3)Cc3cn(C4CC4)c4cc(N5CC[C@@H](CN)C5)c(F)cc4c3=O)C2)cn1.Cl [Example 20, 7-[(3S)-3-(aminomethyl)pyrrolidin-1-yl]-1-cyclopropyl-6-fluoro-3-({[(3S)-1-(6-methylpyridin-3-yl)piperidin-3-yl][(2-methylpyridin-4-yl)methyl]amino}methyl)-1,4-dihydroquinolin-4-one Hydrochloride]	+++ (ΔTm≥20° C.)
COCCn1cc(CN(Cc2ccnc(C)c2)[C@H]2CCCN(c3ccc(N)nc3)C2)c(=O)c2ccccc21.Cl [Example 21, 3-({[(3S)-1-(6-aminopyridin-3-yl)piperidin-3-yl][(2-methylpyridin-4-yl)methyl]amino}methyl)-1-(2-methoxyethyl)-1,4-dihydroquinolin-4-one Hydrochloride]	+++ (ΔTm≥20° C.)
Cc1ccc(N2CCC[C@H](N(Cc3ccnc(C)c3)Cc3cn(C4CC4)c4cc(N5CC(N)C6(CC6)C5)c(F)cc4c3=O)C2)cn1.Cl (stereo partly drawn) [Example 22, 7-{7-amino-5-azaspiro[2.4]heptan-5-yl}-1-cyclopropyl-6-fluoro-3-({[(3S)-1-(6-methylpyridin-3-yl)piperidin-3-yl][(2-methylpyridin-4-yl)methyl]amino}methyl)-1,4-dihydroquinolin-4-one Hydrochloride]	+++ (ΔTm≥20° C.)
Cc1ccc(N2CCC[C@H](N(Cc3ccnc(C)c3)Cc3cn(C)c4cc(N5CC[C@@H](O)C5)ccc4c3=O)C2)cn1 [Example 23, 7-[(3R)-3-hydroxypyrrolidin-1-yl]-1-methyl-3-({[(3S)-1-(6-methylpyridin-3-yl)piperidin-3-yl][(2-methylpyridin-4-yl)methyl]amino}methyl)-1,4-dihydroquinolin-4-one]	++ (10<ΔTm<20° C.)
